Measurements reported in US9133109B2, “Method for preparing bromourea” (Bromine Compounds Ltd., priority 2010, dated 2015).

Legend:
[1] = tested on: Pseudomonas aeruginosa (ATCC 15442); assay: Biocidal activity against simulated biofilm systems (alginate beads); assay type: cell-based
From the text: A biofilm simulation system, alginate beads, developed by the Biofilm Bozeman Institute Montana (Grobe, K. J, Zahller, J and Stewart P. S., 2002 in “Role of dose concentration in biocide efficacy against Pseudomonas aeruginosa Biofilms”, J. Industrial Microbiology & Biotechnology, vol. 29, pp 10-15), was used in order to evaluate the efficacy of bromine/urea against biofilm.
The biofilm simulation was created by entrapping bacteria in alginate gel beads. A plate of R2A agar was streaked with Pseudomonas aeruginosa (ATCC 15442) and incubated at 35° C. overnight. Buffer phosphate at pH 7.2 was used to scrap off the bacteria from the agar plate and to create a suspension. The bacterial suspension was mixed with an equal volume of an aqueous 4% sodium alginate solution, to make a final 2% alginate solution. The alginate and bacterial slurry were placed in a 50 ml syringe attached to a gauge needle (22), connected to a compressed air tank, allowing the syringe be pressurized. At 20 psig pressure a stream of small drops was forced out and dropped into a stirred solution of 50 mM CaCl2. The Ca^+2 cross linked the alginate, and semi solid beads with entrapped bacterial cells were formed. The beads were allowed to stir in the CaCl2 solution for about 20 minutes, and then rinsed in a dilute 5 mM CaCl2 solution. Several flasks containing 100 beads each were incubated overnight at 35° C. on a rotating shaker in a buffer solution (at pH 7) with 5 mM addition of CaCl2 to maintain the beads structure. The resulting beads diameter is about 2 mm
At the beginning of the experiment, the supernatant of the beads buffer suspension containing 5 mM CaCl2 was decanted and replaced by the 100 ml biocide solution with the required concentration. Chlorourea compositions prepared as in Example 1, and bromourera composition prepared as in Example 2, were used for the biocidal experiments. Urea-bromine compositions prepared by dissolving urea 15.02 g (250.3 mmol, 15% concentration) and 1.17 g Br2 (7.32 mmol, 1.17% concentration) in 84 g H2O (34.2:1 urea:Br2 molar ratio). After different interval contact times, 10 beads were removed and placed in a 5 g/l sodium thiosulfate solution containing 50 mM sodium citrate. The sodium citrate was used to dissolve the alginate gel and release the bacteria into the solution. The neutralizer-citrate solution was placed in the refrigerator for 2 hours, than diluted and placed on R2A agar plates using pour plate technique. The plates were incubated at 35° C. for 24-48 hours and counted. The efficacy and toxicity of the neutralizer were checked as well as a control experiment without biocide addition. Four concentrations (0.5, 1, 2.5 and 5 ppm) were tested at four different contact times (5, 15, 30, and 60 min). Table 1-2 describe the surviving colony forming units (CFU) of the bacteria after different biocides treatment at different contact times.

[2] = Stability of the prepared halourea solution; assay type: physicochemical; conditions: aqueous chlorourea solution, 1.27% as total Cl2
Experimental: In a 250 ml round bottom flask equipped with a magnetic stir bar, a dropping funnel and a thermocouple, 46.04 g urea (Mw 60, 767 mmol) was dissolved in 35.3 g H2O, followed by the addition (upon cooling, exothermic) of 5.37 g of 32% HCl (Mw 36.64, 46.9 mmol). To the solution was added upon cooling 13.3 g of an aq. 10.7% NaOCl solution (wt % as active Cl2, 20 mmol) during 14 min. A slightly yellow solution was obtained retaining 1.27% Cl2 (wt % as total Cl2, iodometric titration, in relation to 1.5% wt % theoretical as Cl2). […] The solution was stable for at least 1 week.
In a 250 ml round bottom flask equipped with a magnetic stir bar, a dropping funnel and a thermocouple, 46 g urea (Mw 60, 767 mmol) was dissolved in 31.8 g H2O, followed by the addition (upon cooling, exothermic) of 8.96 g of 48% HBr (Mw 80.92, 53.15 mmol). To the solution was added upon cooling 13.4 g of an aq. 10.7% NaOCl solution (wt %, as total Cl2, 20.2 mmol) during 10 min. An orange solution was obtained retaining 1% Cl2 (wt %, as total Cl2, iodometric titration, in relation to 1.43% theoretical). […] The solution was stable for at least 24 hrs.

[3] = biocide 0.5 ppm as Cl2, contact time 0 (min)
[4] = biocide 0.5 ppm as Cl2, contact time 5 min
[5] = biocide 0.5 ppm as Cl2, contact time 15 min
[6] = biocide 0.5 ppm as Cl2, contact time 30 min
[7] = biocide 0.5 ppm as Cl2, contact time 60 min
[8] = biocide 1 ppm as Cl2, contact time 0 (min)
[9] = biocide 1 ppm as Cl2, contact time 5 min
[10] = biocide 1 ppm as Cl2, contact time 15 min
[11] = biocide 1 ppm as Cl2, contact time 30 min
[12] = biocide 1 ppm as Cl2, contact time 60 min
[13] = biocide 2.5 ppm as Cl2, contact time 0 (min)
[14] = biocide 2.5 ppm as Cl2, contact time 5 min
[15] = biocide 2.5 ppm as Cl2, contact time 15 min
[16] = biocide 2.5 ppm as Cl2, contact time 30 min
[17] = biocide 2.5 ppm as Cl2, contact time 60 min
[18] = biocide 5 ppm as Cl2, contact time 0 (min)
[19] = biocide 5 ppm as Cl2, contact time 5 min
[20] = biocide 5 ppm as Cl2, contact time 15 min
[21] = biocide 5 ppm as Cl2, contact time 30 min
[22] = biocide 5 ppm as Cl2, contact time 60 min

| SMILES | survival of bacteria (CFU) [1, 3] | survival of bacteria (CFU) [1, 4] | survival of bacteria (CFU) [1, 5] | survival of bacteria (CFU) [1, 6] | survival of bacteria (CFU) [1, 7] | survival of bacteria (CFU) [1, 8] | survival of bacteria (CFU) [1, 9] | survival of bacteria (CFU) [1, 10] | survival of bacteria (CFU) [1, 11] | survival of bacteria (CFU) [1, 12] | survival of bacteria (CFU) [1, 13] | survival of bacteria (CFU) [1, 14] | survival of bacteria (CFU) [1, 15] | survival of bacteria (CFU) [1, 16] | survival of bacteria (CFU) [1, 17] | survival of bacteria (CFU) [1, 18] | survival of bacteria (CFU) [1, 19] | survival of bacteria (CFU) [1, 20] | survival of bacteria (CFU) [1, 21] | survival of bacteria (CFU) [1, 22] | further results |
| --- | --- | --- | --- | --- | --- | --- | --- | --- | --- | --- | --- | --- | --- | --- | --- | --- | --- | --- | --- | --- | --- |
| NC(=O)NBr [bromourea] | 9.22 × 10^6 CFU | 8.10 × 10^6 CFU | 8.00 × 10^6 CFU | 3.50 × 10^6 CFU | 7.37 × 10^5 CFU | 9.22 × 10^6 CFU | 9.30 × 10^6 CFU | 1.73 × 10^6 CFU | 1.00 × 10^4 CFU | <1.00 CFU | 9.22 × 10^6 CFU | 2.72 × 10^6 CFU | 6.08 × 10^2 CFU | 5.00 × 10^1 CFU | <1.00 CFU | 9.22 × 10^6 CFU | 3.00 × 10^5 CFU | <1.00 CFU | <1.00 CFU | <1.00 CFU |  |
| NC(=O)NCl [chlorourea] | 2.28 × 10^7 CFU | 2.80 × 10^7 CFU | 2.43 × 10^7 CFU | 2.28 × 10^7 CFU | 1.00 × 10^7 CFU | 2.28 × 10^7 CFU | 1.89 × 10^7 CFU | 1.61 × 10^7 CFU | 1.66 × 10^7 CFU | 6.40 × 10^5 CFU | 2.28 × 10^7 CFU | 2.20 × 10^7 CFU | 1.42 × 10^7 CFU | 3.56 × 10^5 CFU | 1.58 × 10^3 CFU | 2.28 × 10^7 CFU | 2.16 × 10^7 CFU | 1.00 × 10^6 CFU | 3.25 × 10^3 CFU | <1.00 CFU | time for which the solution was stable [2]: at least 1 week |
